PMC9295539 (Antimicrobial Agents and Chemotherapy, 2022)
Like-named read-outs stand apart in the source and are kept apart here.

Legend:
in vitro = conditions: human
Procedure: (§1) Compounds were screened at 5 μM with metronidazole (40 μM) as an inhibitor control and dimethyl sulfoxide (DMSO) as a neutral control. […] These primary hits were immediately assayed for reconfirmation and mammalian cytotoxicity against HEK293T cells in an 8-point dose-response format.
(§2) Experimental details for the assays were described previously ([50]). […] Assays were performed as previously reported ([51]).
(§3) Relative luminescence unit (RLU) values were analyzed in Genedata Screener (v13.0-Standard). RLU values were normalized to neutral controls minus inhibitors (DMSO-treated wells minus metronidazole-treated wells). For single-point primary assay plates, an additional run-wise median correction was applied to reduce screen artifacts, whereas no corrections were applied to triplicate dose-response plates. For the mammalian cytotoxicity assays, RLU values were uploaded into Genedata Screener, and the data were normalized to those for DMSO-treated wells minus puromycin-treated wells.

[1] = system: Giardia lamblia GS clone H7; experiment: G. lamblia GS clone H7 trophozoite growth, ATP-based bioluminescence assay (BacTiter-Glo), 1,536-well; type: cell-based; conditions: for Selectivity index (CC50/EC50): HEK293T CC50 / G. lamblia GS clone H7 EC50
Procedure: as §1
The primary screen was conducted at 5 μM. […] All source plates were 384-well acoustic, transfer-compatible plates with compounds prediluted in DMSO at either 2 mM or 10 mM. […] Primary screening was done with a single replicate, whereas dose-response testing was carried out in triplicate.
To prevent attachment to the bottle and tubing of the dispenser cassette, the bottle containing the culture was kept on ice throughout the dispensing process. […] The bags were heat sealed and the anaerobic generator was activated according to the manufacturer’s instructions. […] Luminescence was read on a ViewLux uHTS microplate imager (PerkinElmer) with medium-sensitivity luminescence at 30 s of exposure.
as §3

[2] = system: G. lamblia CBG99 (assemblage A); experiment: G. lamblia CBG99 luciferase strain cell growth inhibition assay; type: cell-based, Giardia lamblia; conditions: for inhibition at 5 µM / EC50: Giardia duodenalis; for inhibition at 5 µM / inhibition of G. lamblia growth: G. lamblia CBG99, compound at 5 μM; for EC50: assemblage A, read-out: EC50 against G. lamblia strain CBG99
Procedure: Subsequent assays, including the mouse model of infection, used the G. lamblia click beetle green (CBG99) strain, which was grown and assayed as previously described ([11], [49]).
In vitro reconfirmation and expanded tests against EGFR-TKIs using the G. lamblia CBG99 strain were performed as previously described ([11]). […] The PK studies were performed in groups of 3 mice per compound. […] All animal experiments were approved by the Institutional Animal Care and Use Committees at the University of Washington.

[3] = system: metronidazole-resistant 713-M3 strain; experiment: Metronidazole-resistant G. lamblia 713-M3 cell growth inhibition assay; type: cell-based; conditions: Giardia duodenalis, read-out: EC50 against G. lamblia strain 713-M3
[4] = system: G. lamblia WB6 (assemblage A); experiment: G. lamblia WB6 cell growth inhibition assay; type: cell-based; conditions: Giardia duodenalis, read-out: EC50 against G. lamblia strain WB6
HEK293T cells = experiment: in vitro
Procedure: as §1, §2, §3

[5] = Giardia duodenalis, 48 h, 8-point dose response, triplicate, read-out: 48-h Giardia GS clone H7 EC50
[6] = Giardia duodenalis, Table 2, assemblage B, read-out: EC50 against G. lamblia strain GS clone 7
[7] = 48 h, 8-point dose response, triplicate, read-out: 48-h Giardia GS clone H7 EC50

SMILES	EC50 [1, 5]	Selectivity index (CC50/EC50) [1]	CC50 at 72 h (in vitro; HEK293T cells)	also measured
CCOc1cc2ncc(C#N)c(Nc3ccc(OCc4ccccn4)c(Cl)c3)c2cc1NC(=O)/C=C/CN(C)C [neratinib]	–	–	–	inhibition at 5 µM [2]: ≤ 50%
Cc1ncc([N+](=O)[O-])n1CCO [Metronidazole]	7.12 ± 0.06 µM	>3	–	EC50 [3]: > 25 µM; EC50 [2]: 2.87 ± 0.34 µM; CC50 at 72 h (in vitro): > 25 µM; EC50 ([4]; assemblage A): 2.33 ± 0.06 µM; EC50 [1, 6]: 7.12 ± 0.06 µM
N#CC(C#N)=Cc1ccc(O)c(O)c1 [AG-18]	–	–	–	inhibition of G. lamblia growth [2]: ≤ 50%
C=CC(=O)Nc1ccc2ncnc(Nc3cccc(Br)c3)c2c1 [PD168393]	–	–	–	inhibition of G. lamblia growth [2]: ≤ 50%
CCOC(=O)/C(=C/c1ncc([N+](=O)[O-])n1C)C(C)=O [Propenidazole]	–	–	–	CC50 (HEK293T cells): 16.9 ± 0.05 µM; EC50 [1, 7]: 2.55 ± 0.04 µM
CS(=O)(=O)CCNCc1ccc(-c2ccc3ncnc(Nc4ccc(OCc5cccc(F)c5)c(Cl)c4)c3c2)o1 [lapatinib ditosylate]	–	–	–	inhibition at 5 µM [2]: ≤ 50%
C=CC(=O)Nc1cccc(Nc2nc(Nc3ccc(N4CCN(C(C)=O)CC4)cc3OC)ncc2C(F)(F)F)c1 [rociletinib]	–	–	–	inhibition at 5 µM [2]: ≤ 50%
CNC(=O)CN1CCC(Oc2cc3c(Nc4cccc(Cl)c4F)ncnc3cc2OC)CC1 [AZD8931]	–	–	–	inhibition at 5 µM [2]: ≤ 50%
CN(C)C/C=C/C(=O)Nc1cc2c(Nc3ccc(F)c(Cl)c3)ncnc2cc1O[C@H]1CCOC1 [afatinib]	–	–	–	inhibition at 5 µM [2]: ≤ 50%
N#C/C(=C\c1ccc(O)c(O)c1)C(=O)NCc1ccccc1 [AG-490]	–	–	–	inhibition of G. lamblia growth [2]: ≤ 50%
COc1cc2ncnc(Nc3cccc(Br)c3)c2cc1OC.Cl [PD153035-HCl]	–	–	–	inhibition of G. lamblia growth [2]: ≤ 50%
Cn1c([N+](=O)[O-])cnc1C(O)c1cc(C(C)(C)C)ccc1O (stereo not shown) [Abunidazole]	–	–	–	CC50 (HEK293T cells): > 25 µM; EC50 [1, 7]: 1.08 ± 0.02 µM
CS(=O)(=O)OCCN(CCBr)c1c(C(=O)NCCOP(=O)(O)O)cc([N+](=O)[O-])cc1[N+](=O)[O-] [PR-104]	–	>13	–	CC50 at 72 h (in vitro): > 25 µM; EC50 ([1]; Giardia duodenalis, 48 h, read-out: 48-h Giardia GS clone H7 EC50): 1.98 ± 0.07 µM
COc1cc2ncnc(Nc3cccc(Cl)c3)c2cc1OC [AG-1478]	–	–	–	inhibition of G. lamblia growth [2]: ≤ 50%
CS(=O)(=O)Nc1ccc(C(=O)O[C@@H](Cc2c(Cl)c[n+]([O-])cc2Cl)c2ccc(OC(F)F)c(OCC3CC3)c2)cc1OCC1CC1 [CHF-6001]	2.03 ± 0.1 µM	>12	> 25 µM	–
C#Cc1cccc(Nc2ncnc3cc(OCCOC)c(OCCOC)cc23)c1 [erlotinib]	–	–	–	inhibition at 5 µM [2]: ≤ 50%
C=CC(=O)Nc1cccc(Oc2nc(Nc3ccc(N4CCN(C)CC4)c(F)c3)nc3[nH]ccc23)c1.O=C(O)/C=C\C(=O)O [avitinib maleate]	–	–	–	inhibition of G. lamblia growth [2]: ≤ 50%
COc1cc2ncnc(Nc3ccc(F)c(Cl)c3)c2cc1NC(=O)/C=C/CN1CCCCC1 [dacomitinib]	–	–	–	inhibition at 5 µM [2]: ≤ 50%
CC(=O)C[C@H]1CCCCN1 [Pelletierine]	20.3 ± 0.07 µM	>1	–	EC50 [3]: > 25 µM; EC50 [2]: > 25 µM; CC50 (in vitro): > 25 µM; EC50 [4]: > 25 µM; EC50 [1, 6]: 20.3 ± 0.07 µM

Second part, led by results:

EC50 [1, 5]	SMILES	Selectivity index (CC50/EC50) [1]	CC50 at 72 h (in vitro; HEK293T cells)	also measured
6.42 ± 0.06 µM	O=C1NCCN1c1ncc([N+](=O)[O-])s1 [Niridazole]	>4	–	CC50 at 72 h (in vitro): > 25 µM
7.11 ± 0.28 µM	CC(=O)Nc1ncc([N+](=O)[O-])s1 [Aminitrozole]	>3	> 25 µM	–
0.72 ± 0.06 µM	Cn1c([N+](=O)[O-])cnc1/C=C/c1ccnc(N)n1 [Azanidazole]	>35	> 25 µM	–
6.57 ± 0.09 µM	Cc1ncc([N+](=O)[O-])n1CC(C)O (stereo not shown) [Secnidazole]	>4	–	CC50 at 72 h (in vitro): > 25 µM
2.43 ± 0.23 µM	Cc1ncc([N+](=O)[O-])n1CCOC(=O)c1ccccc1 [Benzoyl metronidazole]	>10	> 25 µM	–
6.39 ± 0.16 µM	CSc1ccc(OCc2ncc([N+](=O)[O-])n2C)cc1 [Fexinidazole]	>4	> 25 µM	–
6.45 ± 0.11 µM	CC(=O)Oc1ccccc1C(=O)Nc1ncc([N+](=O)[O-])s1 [Nitazoxanide]	>4	> 25 µM	–
5.8 ± 0.13 µM	O=[N+]([O-])c1ccc(-c2nc3ccccc3[nH]2)o1 [2-(5-Nitro-2-furyl) benzimidazole]	>4	> 25 µM	–
6.11 ± 0.11 µM	Cn1c([N+](=O)[O-])cnc1/C=N/N1CC(CN2CCOCC2)OC1=O (stereo not shown) [Moxnidazole]	>4	> 25 µM	–
1.85 ± 0.68 µM	Cc1ncc([N+](=O)[O-])n1CCc1ccncc1 [Panidazole]	>14	> 25 µM	–
2.49 ± 0.04 µM	Cn1c([N+](=O)[O-])cnc1N1CCN(S(C)(=O)=O)C1=O [Satranidazole]	>10	> 25 µM	–
3.01 ± 0.06 µM	COC(=S)NCCn1c([N+](=O)[O-])cnc1C [Carnidazole]	>8	> 25 µM	–
5.78 ± 0.07 µM	CCCN(CCC)c1ccc(/N=N/c2ccccc2C(=O)O)cc1 [Propyl red]	>4	> 25 µM	–
1.82 ± 0.04 µM	Cc1ncc([N+](=O)[O-])n1CC(O)CCl (stereo not shown) [Ornidazole]	>14	–	CC50 at 72 h (in vitro): > 25 µM
5.7 ± 0.08 µM	CCS(=O)(=O)CCn1c([N+](=O)[O-])cnc1C [Tinidazole]	>4	–	CC50 at 72 h (in vitro): > 25 µM
